Data taken from patent US11931403B2, “Compositions, systems, and methods for treating or reducing hypoxia-ischemia induced brain damage and neurobehavioral dysfunction in neonates” (UNIVERSITY OF MISSISSIPPI MEDICAL CENTER, priority 2019, dated 2024).

Legend:
[1] = parameters: species or system Sprague-Dawley rats; settings: rat, in vivo
Procedure: Another set of animals were prepared for ELISA study. […] Total proteins were extracted using protein lysis buffer (Invitrogen).
Ex vivo whole brain and spinal cord imaging using live imaging devices (IVIS Spectrum imaging system) was performed to provide an accurate picture of the overall bio-distribution of fluorescent labeling insulin. […] To accurately assess bio-distribution of intranasal insulin, all tissues of interest were analyzed by ELISA.

[2] = tested on: neonatal piglet model of HI; settings: bolus injection followed by continuous infusion, continued during HI exposure; cited from earlier work
neonatal pig model of HI = settings: IV, to prevent hyperglycemia during glucose infusion before HI injury; cited from earlier work

With “Alexa 546-labeled insulin: fluorescent Alexa 546-labeled insulin (Nanocs Inc) used to study distribution in brain after intranasal application” the “Delivery to the central nervous system (fluorescence imaging)” value [1] was “delivered to the central nervous system at 15 minutes”.
In the case of “regular insulin: regular insulin bolus and infusion to induce moderate hypoglycemia in a neonatal piglet HI model”, the “Brain injury with insulin-induced hypoglycemia” value [2] is listed as “not able to ameliorate brain injury”.
For “regular porcine insulin: IV regular porcine insulin used by LeBlanc et al. in a neonatal pig model of HI”, the “Outcome of piglets in the insulin group” value (neonatal pig model of HI) is listed as “fared slightly better”.
